Blank lines part the entries; values can stand above or below the compound they belong to.
Columns and labels:
[1] = Safety and pharmacokinetics, single dose studies in healthy subjects; format: in vivo, human
physchem = details: pH 3, aqueous buffer
[2] = Environmental stability (heat, acid, base); format: physicochemical
Syk = Syk (Homo sapiens, UniProt P43405); details: DLBCL, CLL, and mantle cell lymphoma; cited from earlier work

Structure (SMILES): C=CC(=O)Nc1cccc(Nc2nc(Nc3ccc(OCCOC)cc3)ncc2F)c1 [Compound 1, N-(3-(5-fluoro-2-(4-(2-methoxyethoxy)phenylamino)pyrimidin-4-ylamino)phenyl)acrylamide]
pharmacokinetics (PK) [1]: predictable pharmacokinetics | safety [1]: adequate safety

solubility (physchem): 400 µg/mL | environmental instabilities (i.e. heat, acid, base) that require special handling [2]: no environmental instabilities
Structure (SMILES): C=CC(=O)Nc1cccc(Nc2nc(Nc3ccc(OCCOC)cc3)ncc2F)c1.O=S(=O)(O)c1ccccc1 [N-(3-(5-fluoro-2-(4-(2-methoxyethoxy)phenylamino)pyrimidin-4-ylamino)phenyl)acrylamide benzenesulfonic acid salt]

Structure (SMILES): COc1cc(Nc2ncc(F)c(Nc3ccc4c(n3)N(COP(=O)(O)O)C(=O)C(C)(C)O4)n2)cc(OC)c1OC [fostamatinib disodium]
clinical responses (Syk): produced clinical responses

Source: patent US20140140991A1, “METHODS OF TREATING A DISEASE OR DISORDER ASSOCIATED WITH BRUTON'S TYROSINE KINASE” (Celgene Avilomics Research, Inc., priority 2012, published 2014)
